Values of other authors in US20140030241A1 (NESTEC S.A., priority 2011, published 2014).

Columns and labels:
IgG and IgM response = details: rodents
Candida albicans = details: rodents on nucleotide free diet, Candida albicans challenge
[1] = enters circulation without being metabolized by the liver
Splenic lymphocytes = details: rodents on nucleotide free diets, additions to the diet

In the case of `Nc1ncnc2c1ncn2[C@@H]1O[C@H](COP(=O)(O)O)[C@@H](O)[C@H]1O` [AMP, 5-Adenosine Monophosphate], the IgG response (IgG and IgM response) is listed as “increased IgG response”.

For `Nc1nc2c(ncn2[C@@H]2O[C@H](COP(=O)(O)O)[C@@H](O)[C@H]2O)c(=O)[nH]1` [GMP, 5′-Guanosine Monophosphate], the IgG response (IgG and IgM response) is given as “increased IgG response” and the IgM response (IgG and IgM response) is given as “increase IgM response”.

For `O=c1ccn([C@@H]2O[C@H](COP(=O)(O)O)[C@@H](O)[C@H]2O)c(=O)[nH]1` [UMP, 5′-Uracil Monophosphate], the IgG response (IgG and IgM response) is listed as “increased IgG response”.

In the case of `Nc1ncnc2nc[nH]c12` [adenine], the survival time (Candida albicans) is given as “not”.

For `NC(=O)NCCC[C@H](N)C(=O)O` [citrulline], the “conversion to arginine in the kidneys” value [1] is listed as “almost complete”.

In the case of `O=c1cc[nH]c(=O)[nH]1` [uracil], the “suppressed cell-mediated immune responses (proliferation to mitogens, IL-2 production, IL-2 receptor and Lyt-1 markers, delayed cutaneous hypersensitivity)” value (Splenic lymphocytes) is listed as “largely reversed” and the survival time (Candida albicans) is listed as “increase survival time”.
